The text below walks through data of patent US9932340B2, “Substituted indoles” (AbbVie Inc., priority 2014, dated 2018).

pIC50: −log10 of the molar value.

Chain of SUV420H1 enzyme (Q4FZB7 whole entry): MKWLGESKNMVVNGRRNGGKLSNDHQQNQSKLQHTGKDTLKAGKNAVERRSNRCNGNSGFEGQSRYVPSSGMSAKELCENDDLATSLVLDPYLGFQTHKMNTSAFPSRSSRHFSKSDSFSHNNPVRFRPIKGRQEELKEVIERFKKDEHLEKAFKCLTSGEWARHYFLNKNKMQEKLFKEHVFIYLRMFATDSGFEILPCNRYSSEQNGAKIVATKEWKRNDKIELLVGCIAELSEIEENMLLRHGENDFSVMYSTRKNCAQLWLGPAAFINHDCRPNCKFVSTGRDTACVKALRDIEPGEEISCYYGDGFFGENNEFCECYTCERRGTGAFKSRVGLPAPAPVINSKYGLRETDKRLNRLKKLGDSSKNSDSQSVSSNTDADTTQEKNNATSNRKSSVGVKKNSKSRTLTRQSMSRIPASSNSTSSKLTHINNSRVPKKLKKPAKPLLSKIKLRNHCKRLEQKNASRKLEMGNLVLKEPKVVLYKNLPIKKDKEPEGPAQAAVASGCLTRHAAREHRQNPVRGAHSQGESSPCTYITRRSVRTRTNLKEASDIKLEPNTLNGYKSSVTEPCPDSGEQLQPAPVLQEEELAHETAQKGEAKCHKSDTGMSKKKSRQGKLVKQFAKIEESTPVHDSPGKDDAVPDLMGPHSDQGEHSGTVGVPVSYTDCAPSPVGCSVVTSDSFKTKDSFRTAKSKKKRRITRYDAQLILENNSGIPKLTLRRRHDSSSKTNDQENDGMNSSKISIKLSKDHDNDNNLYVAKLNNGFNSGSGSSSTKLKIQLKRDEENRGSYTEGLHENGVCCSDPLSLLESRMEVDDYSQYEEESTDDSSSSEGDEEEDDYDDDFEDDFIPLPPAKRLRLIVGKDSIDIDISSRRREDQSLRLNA

The target of the assay is SUV420H1 enzyme (Homo sapiens, UniProt Q4FZB7). As to the kind of experiment: TR-FRET SAH SUV420H1 enzyme inhibition assay. It is filed as biochemical. The note with it: Histone Peptide H4(8-30)me1 and SAM, overnight at room temp, TR-FRET detection of SAH, read-out: TR-FRET SAH_SUV420H1 IC50. Here is the method:
Test compounds were dispensed by a Labcyte Echo in 384-well low volume assay plates with 3-fold serial dilutions from 50 μM to 0.00075 μM. 5 μL of SUV420H1 enzyme (Abbvie) at 90 nM was added to all wells except the no enzyme control wells, and incubated for 30 minutes at room temp before 5 μL of Histone Peptide H4(8-30)me1 (Anaspec) at 5 nM and SAM at 4 nM was added to all wells. The plates were incubated in a humidified chamber overnight at room temp and then 10 μL of the detection reagent that contained RIPA buffer (50 mM Tris-HCl, pH 8.0, 150 mM sodium chloride, 1.0% Igepal CA-630 (NP-40), 0.5% sodium deoxycholate and 0.1% sodium dodecyl sulfate) (Sigma) with 2 nM of Terbium chelate anti S-adenosyl-L-homocysteine (SAH) (Abbvie) antibody and Oregon Green labeled SAH at 4 nM was added. The plates were further incubated for 4 hours at room temperature. The plates were read in a Perkin Elmer Envision using a TR-FRET protocol with Excitation set at 335 nm and Emission at 520 and 495 nm. To generate dose response curves the data is normalized to percent inhibition by setting the average of the plus and minus enzyme control wells to 0% and 100% inhibition respectively. The IC50 values for the compounds are generated by fitting the normalized data with Accelrys Assay Explorer 3.3 to a sigmoidal curve model using […] regression, Y=(100*x^n)/(K^n+x^n), where Y is the measured response, x is the compound concentration, n is the Hill Slope and K is the IC50 and the lower and higher asymptotes are constrained to 0 and 100 respectively.
(In TR-FRET formats the signal depends on donor and acceptor labels being close together.)
As a reminder, the pIC50 is the IC50 on a negative log10 scale, so that one unit is a factor of ten. With `Cc1noc(C)c1C(=O)NCc1cc2cc(Cl)cc(Cn3cnc4c(N)ncnc43)c2[nH]1` [Example 162, N-({7-[(6-amino-9H-purin-9-yl)methyl]-5-chloro-1H-indol-2-yl}methyl)-3,5-dimethyl-1,2-oxazole-4-carboxamide], the pIC50 was 6.63. To `Nc1ncnc2c1ncn2Cc1cc(Cl)cc2cc(C(N)Cc3ccccc3)[nH]c12` (stereo not shown) [Example 206, 9-{[2-(1-amino-2-phenylethyl)-5-chloro-1H-indol-7-yl]methyl}-9H-purin-6-amine] belongs 5.98. To `COc1ccccc1CC(=O)NCc1cc2cc(Cl)cc(Cn3cnc4c(N)ncnc43)c2[nH]1` [Example 298, N-({7-[(6-amino-9H-purin-9-yl)methyl]-5-chloro-1H-indol-2-yl}methyl)-2-(2-methoxyphenyl)acetamide] belongs 5.22. On to `Nc1ncnc2c1ncn2Cc1cc(Cl)cc2cc(CNC(=O)c3cccc(Cl)c3)[nH]c12` [Example 222, N-({7-[(6-amino-9H-purin-9-yl)methyl]-5-chloro-1H-indol-2-yl}methyl)-3-chlorobenzamide], for which the negative logarithm of the IC50 (pIC50) was 5.45. To `CCc1noc(C)c1C(=O)NCc1cc2cc(Cl)cc(Cn3cnc4c(N)ncnc43)c2[nH]1` [Example 186, N-({7-[(6-amino-9H-purin-9-yl)methyl]-5-chloro-1H-indol-2-yl}methyl)-3-ethyl-5-methyl-1,2-oxazole-4-carboxamide] belongs 6.58; to `CN(C)c1ccc(CC(=O)NCc2cc3cc(Cl)cc(Cn4cnc5c(N)ncnc54)c3[nH]2)cc1` [Example 317, N-({7-[(6-amino-9H-purin-9-yl)methyl]-5-chloro-1H-indol-2-yl}methyl)-2-[4-(dimethylamino)phenyl]acetamide], 5.35; to `Nc1ncnc2c1ncn2Cc1cc(Cl)cc2cc(CNC(=O)CC3CCCCC3)[nH]c12` [Example 133, N-({7-[(6-amino-9H-purin-9-yl)methyl]-5-chloro-1H-indol-2-yl}methyl)-2-cyclohexylacetamide], 4.50. To `Nc1ncnc2c1ncn2Cc1cc(Cl)cc2cc(CNC(=O)Cc3ccncc3)[nH]c12` [Example 232, N-({7-[(6-amino-9H-purin-9-yl)methyl]-5-chloro-1H-indol-2-yl}methyl)-2-(pyridin-4-yl)acetamide] belongs 5.70; to `CCC(N)c1cc2cc(Cl)cc(Cn3cnc4c(N)ncnc43)c2[nH]1` (stereo not shown) [Example 91, 9-{[2-(1-aminopropyl)-5-chloro-1H-indol-7-yl]methyl}-9H-purin-6-amine], 5.57. The value for `CC(C)c1ccc(Cn2cnc3c(N)ncnc32)c2[nH]c(CN)cc12` [Example 66, 9-{[2-(aminomethyl)-4-(propan-2-yl)-1H-indol-7-yl]methyl}-9H-purin-6-amine] was 5.37; that for `Nc1ncnc2c1ncn2Cc1cc(Cl)cc2cc(CNC(=O)c3cnc4ccsc4c3)[nH]c12` [Example 337, N-({7-[(6-amino-9H-purin-9-yl)methyl]-5-chloro-1H-indol-2-yl}methyl)thieno[3,2-b]pyridine-6-carboxamide] was 7.01; that for `Nc1ncnc2c1ncn2Cc1cc(Cl)cc2cc(CNC(=O)c3ccccc3OC3CCOCC3)[nH]c12` [Example 321, N-({7-[(6-amino-9H-purin-9-yl)methyl]-5-chloro-1H-indol-2-yl}methyl)-2-(tetrahydro-2H-pyran-4-yloxy)benzamide] was 5.09. For `Cc1nc2ccc(C(=O)NCc3cc4cc(Cl)cc(Cn5cnc6c(N)ncnc65)c4[nH]3)cc2s1` [Example 358, N-({7-[(6-amino-9H-purin-9-yl)methyl]-5-chloro-1H-indol-2-yl}methyl)-2-methyl-1,3-benzothiazole-6-carboxamide], the pIC50 is 6.05. For `Cc1cc(C#N)ccc1C(=O)NCc1cc2cc(C3=CCN(C(=O)OC(C)(C)C)CC3)cc(Cn3cnc4c(N)ncnc43)c2[nH]1` [Example 308], the negative logarithm of the IC50 (pIC50) is 7.30.

For the molecule `CS(=O)(=O)c1ccc(-c2ccc(Cn3cnc4c(N)ncnc43)c3[nH]c(CN)cc23)cc1` [Example 81, 9-({2-(aminomethyl)-4-[4-(methylsulfonyl)phenyl]-1H-indol-7-yl}methyl)-9H-purin-6-amine], the pIC50 is 6.48. For `Nc1ncnc2c1ncn2Cc1cc(Cl)cc2cc(CNC(=O)[C@H]3CCCN3)[nH]c12` [Example 116, (2R)—N-({7-[(6-amino-9H-purin-9-yl)methyl]-5-chloro-1H-indol-2-yl}methyl)pyrrolidine-2-carboxamide], the negative logarithm of the IC50 (pIC50) was 5.08. The value for `Nc1ncnc2c1ncn2Cc1cc(Cl)cc2cc(CNC(=O)c3ccc4cc[nH]c4c3)[nH]c12` [Example 356, N-({7-[(6-amino-9H-purin-9-yl)methyl]-5-chloro-1H-indol-2-yl}methyl)-1H-indole-6-carboxamide] was 5.58; that for `Cc1c(C)n(C)c2ccc(C(=O)NCc3cc4cc(Cl)cc(Cn5cnc6c(N)ncnc65)c4[nH]3)cc12` [Example 378, N-({7-[(6-amino-9H-purin-9-yl)methyl]-5-chloro-1H-indol-2-yl}methyl)-1,2,3-trimethyl-1H-indole-5-carboxamide] was 5.20. With `Nc1ncnc2c1ncn2Cc1cc(Cl)cc2cc(CNCc3c(Cl)cccc3Cl)[nH]c12` [Example 211, 9-[(5-chloro-2-{[(2,6-dichlorobenzyl)amino]methyl}-1H-indol-7-yl)methyl]-9H-purin-6-amine], the pIC50 was 5.03. For `CS(=O)(=O)c1cccc(CNCc2cc3cc(Cl)cc(Cn4cnc5c(N)ncnc54)c3[nH]2)c1` [Example 262, 9-{[5-chloro-2-({[3-(methylsulfonyl)benzyl]amino}methyl)-1H-indol-7-yl]methyl}-9H-purin-6-amine], the negative-log IC50 (pIC50) was 5.56.

As for `Cc1nnccc1C(=O)NCc1cc2cc(C3=CCN(C(=O)OC(C)(C)C)CC3)cc(Cn3cnc4c(N)ncnc43)c2[nH]1` [Example 204, tert-butyl 4-{7-[(6-amino-9H-purin-9-yl)methyl]-2-({[(3-methylpyridazin-4-yl)carbonyl]amino}methyl)-1H-indol-5-yl}-3,6-dihydropyridine-1(2H)-carboxylate], the negative-log IC50 (pIC50) is 7.27. `COc1ccc(-c2ccc(Cn3cnc4c(N)ncnc43)c3[nH]c(CN)cc23)cc1` [Example 78, 9-{[2-(aminomethyl)-4-(4-methoxyphenyl)-1H-indol-7-yl]methyl}-9H-purin-6-amine]: the pIC50 was 6.20.

Consider `C=C(C)c1ccc(Cn2cnc3c(N)ncnc32)c2[nH]c(CN)cc12` [Example 65, 9-{[2-(aminomethyl)-4-(prop-1-en-2-yl)-1H-indol-7-yl]methyl}-9H-purin-6-amine], for which the pIC50 is 5.29. To `Nc1ncnc2c1ncn2Cc1cc(Cl)cc2cc(CNC(=O)[C@@H]3CCC(=O)N3)[nH]c12` [Example 117, (2S)—N-({7-[(6-amino-9H-purin-9-yl)methyl]-5-chloro-1H-indol-2-yl}methyl)-5-oxopyrrolidine-2-carboxamide] belongs 4.85; to `CN1CCN(C(=O)c2ccc(-c3cc(Cn4cnc5c(N)ncnc54)c4[nH]c(CN)cc4c3)cc2)CC1` [Example 56, (4-{2-(aminomethyl)-7-[(6-amino-9H-purin-9-yl)methyl]-1H-indol-5-yl}phenyl)(4-methylpiperazin-1-yl)methanone], 6.62.
